Columns and labels:
[1] = tested on: VSV-G pseudotyped lentiviruses; type: cell-based
[2] = tested on: VSV-G pseudotyped lentiviruses; type: cell-based; conditions: 10 µM
MOS1 = molecular target: T1, MOS1 (Drosophila mauritiana, UniProt Q7JQ07); test: MOS1 in vitro activities, overall statements of the discussion; type: biochemical, D. mauritiana; conditions: in vitro assays of MOS1 activities; discussion
T1 construct: involving the full-length Mos1 transposase (MOS1) was recently solved; made in house
T1 sequence (Q7JQ07 whole entry): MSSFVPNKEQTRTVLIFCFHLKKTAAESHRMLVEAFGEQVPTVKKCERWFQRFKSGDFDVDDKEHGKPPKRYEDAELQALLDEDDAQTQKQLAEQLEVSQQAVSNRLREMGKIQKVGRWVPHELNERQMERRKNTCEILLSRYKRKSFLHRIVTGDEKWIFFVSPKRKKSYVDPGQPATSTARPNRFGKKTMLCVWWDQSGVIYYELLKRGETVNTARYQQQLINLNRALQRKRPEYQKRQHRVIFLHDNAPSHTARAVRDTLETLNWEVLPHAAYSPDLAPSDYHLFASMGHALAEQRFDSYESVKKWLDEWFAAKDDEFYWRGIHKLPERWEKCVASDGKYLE
Procedure: (§1) In vitro transposition reactions were performed using pBC-3T3 as both the donor DNA and the target, as previously described. Briefly, the basic transposition reaction mixtures contained 10 mM Tris-HCl (pH 9), 50 mM NaCl, 20 mM MgCl2, 0.5 mM EDTA, 5% glycerol, 5 ng/ml BSA, 600 ng pBC-3T3, and 80 nM purified MBP-MOS1 (added last) in a volume of 20 µl. Inhibitors (25 or 10 µM, as specified) or DMSO (2%) were added to the reaction mixtures before the transposase. The reactions were allowed to proceed for 30 min at 30°C. After phenol-chloroform extraction and ethanol precipitation, 10% of the reaction mixture was transformed in electro-competent JM109 E. coli (2 mm cuvette, 1.5 kV in a MicroPulser™BioRad). Appropriate dilutions of each reaction mixture were plated on LB-tetracycline (12.5 µg/ml) agar and LB-chloramphenicol (80 µg/ml) agar to score the transposition rate. The transposition rate was the number of Tet^R colonies divided by the number of Chloram^R plus Tet^R colonies. Each condition was done at least three times in independent experiments.
(§2) Basic excision reaction mixtures contained 10 mM Tris-HCl (pH 9), 50 mM NaCl, 20 mM MgCl2, 0.5 mM EDTA, 0.5 mM DTT, 100 ng BSA, 600 ng of super-coiled pBC-3T3, and 80 nM MBP-MOS1 (added last) in a volume of 20 µl. Molecules (25 or 10 µM, as specified) or DMSO (2%) were added to the reaction mixtures before the transposase. The reactions were allowed to proceed at 30°C for 30 min before 2 µl of stop solution (loading buffer) were added. The reaction mixtures were then incubated at 65°C for 10 min. Each reaction was analysed by overnight electrophoresis at 2.7 V/cm on a TAE-buffered 1% agarose gel with ethidium bromide (0.3 mg/ml). After electrophoresis, the gel was photographed on a transilluminator. ImageGauge 4.22 software (Fujifilm) was used to quantify the bands. Each condition was tested at least twice.
These assays were performed using pre-cleaved 3′ITRs (PC-ITR), i.e. ITRs in the configuration expected after excision. Double-strand ITRs were obtained by annealing equimolar amounts of 70-NTS-PN (5′[…]3′) and 70-TS-PC (5′[…]3′) single-strand oligonucleotides. Prior to annealing, the transferred strand (70-TS-PC) was 5′-end labelled using T4 polynucleotide kinase (Promega) and γ-^32P-ATP following the manufacturer's instructions. Oligonucleotides were provided by Eurofins MWG Biotech (Germany) or Eurogentec (Belgium). Reaction mixtures containing 10 mM Tris-HCl (pH 9), 50 mM NaCl, 1 mM DTT, 5% glycerol, 100 ng BSA, 100 nM of labelled PC-ITR and 100 nM MBP-MOS1 in a final volume of 20 µl were incubated at 30°C for 30 min. The pBC plasmid (which contained the cat gene, a hot-spot for Mos1 insertion) was then added to 30 ng/µL along with 5 mM MgCl2. Molecules (25 or 10 µM, as specified) or DMSO (2%) were added to the reaction mixtures along with the target DNA to estimate their effect on integration. Reactions were carried out for 3 hours at 30°C. 0.1 mg/ml proteinase K and 0.1% SDS were added to stop the reaction. DNA products were purified by phenol-chloroform extraction and ethanol precipitated using standard techniques. DNA products were resuspended in DNA loading buffer, then separated onto a 1% agarose gel in 1X TAE (Tris Acetate EDTA) buffer. The gel was dried onto a nitrocellulose membrane (Hybond N+, GE Healthcare), scanned using a Storm, and analysed with ImageQuant software. Signals were quantified using ImageQuant software. Efficiency of integration was calculated as the intensity of the integration signal divided by the intensity of free target signal plus integration signal. Each condition was tested at least twice.
All molecules were also tested in in vitro assays reproducing integration and excision reactions catalysed by MOS1. […] In contrast, E-resveratrol and E-ε-viniferin glucoside, which act more specifically on HIV-1 3′processing reaction, and E-piceid and E-pterostilbene, which is more efficient on the integration reaction, were not active on MOS1.

HIV-1 IN [3] = molecular target: T2, HIV-1 IN (Human immunodeficiency virus type 1 group M subtype B, UniProt P04585); test: HIV-1 IN in vitro concerted integration assay (processed or unprocessed donor DNA); conditions: for differential effect between reactions: strand transfer / processed donor versus 3′processing / unprocessed donor: comparison of concerted integration and 3′processing results; for inhibitory efficiency compared with raltegravir: concerted integration; for inhibitory efficiency compared with raltegravir / inhibition of concerted integration from processed and unprocessed donor: increasing concentrations
HIV-1 IN [4] = molecular target: T2, HIV-1 IN; test: HIV-1 IN 3′processing assay; type: biochemical; conditions: 600 nM IN; increasing concentrations
Mos1 transposase (MOS1) [5] = molecular target: T3, Mos1 transposase (MOS1) (Drosophila mauritiana, UniProt Q7JQ07); test: MOS1 in vitro transposition assay (genetic hop experiment); type: biochemical, D. mauritiana
T3 construct: involving the full-length Mos1 transposase (MOS1) was recently solved; made in house
T3 sequence (Q7JQ07 whole entry): as above
Procedure: The wild type Mos1 transposase (MOS1: 345 amino acids) was produced and purified as a fusion protein linked to the maltose-binding protein by using the pMal-c2 system (New England Biolabs) and following the manufacturer's instructions.
as §1
To identify the natural stilbenes active on MOS1, the 17 molecules were tested using an in vitro genetic “hop” experiment, which is the most sensitive test available as yet. Purified MOS1 was incubated with the pBC-3T3 plasmid, which was used both as the transposon donor and the target plasmid. This plasmid contains the pBR322 tetracycline resistance gene (without promoter) framed by two Mos1 ITRs. This reconstitutes a pseudo-Mos1 element named 3T3. We took advantage of the fact that the cat gene (present in the pBC backbone) is a hotspot for Mos1 integration. […] Transposition events were recovered by bacterial transformation with selection for tetracycline resistance, as a gain-of-function landmark for transposition. […] Controls correspond to assays performed without molecule but with DMSO, which is routinely used as the solvent. […] To confirm the efficiency of the six molecules, they were similarly assayed at 10 µM ( figure 6B ). Since they appeared to be still active at 10 µM, they were further characterized in order to identify the targeted step of the transposition cycle.

Mos1 transposase (MOS1) [6] = molecular target: T3, Mos1 transposase (MOS1); test: MOS1 in vitro excision assay; type: biochemical, D. mauritiana
Procedure: as §2
The ability of the selected molecules to inhibit excision was tested in vitro using the pBC-3T3 plasmid as the transposon donor. MOS1 triggers the excision of the pseudo-Mos1 from the plasmid producing two linear DNA fragments, the transposon and the plasmid backbone, together with intermediate products (open circle plasmids which contained single strand nicks and linear plasmids which contained a double strand nick at one ITR). After excision, the transposon could be reintegrated, making it difficult to detect in electrophoresis. The activity of the molecules was measured by quantifying the plasmid backbone, the end product of the reaction. The assays were performed with final concentrations of 25 and 10 µM molecules. Controls correspond to assays performed without molecule but with DMSO. […] Reactions were performed at least twice for each selected molecules (leachianol G, leachianol F, quadrangularin A, hopeaphenol, vitisin B and pallidol) and the excision activity is reported in figure 7B . […] The six selected molecules were then tested for the integration step of Mos1 transposition.

topoisomerase II = tested on: topoisomerase II; set-up: method as in PMID 16508191; conditions: cited from earlier work

Compound | integration inhibition evaluated by GFP fluorescence [1] | 1LTR circles amount [2] | 2LTR circles DNA [2] | integrated DNA amount [2] | total viral DNA amount [2] | activity on MOS1 (MOS1) | differential effect between reactions: strand transfer / processed donor versus 3′processing / unprocessed donor (HIV-1 IN [3]) | inhibitory efficiency compared with raltegravir (HIV-1 IN [3]) | inhibition of concerted integration from processed and unprocessed donor (HIV-1 IN [3]) | inhibitory effect on 3′processing (HIV-1 IN [4]) | activity against MOS1 in transposition assay (Mos1 transposase (MOS1) [5]; 10 µM) | inhibition of the whole MOS1 transposition activity (Mos1 transposase (MOS1) [5]; 25 µM, DMSO control as reference) | inhibition at 25 µM (Mos1 transposase (MOS1) [6]; 25 µM, DMSO control as reference, read-out: inhibition of in vitro excision reaction) | IC50 (Mos1 transposase (MOS1) [6]; concentration range, sigmoid dose-response fit) | topoisomerase II inhibition (topoisomerase II) | inhibition of concerted integration (HIV-1 IN [3]; 50 µM, both activities (processed and unprocessed donor))
COc1cc(/C=C/c2ccc(O)cc2)cc(OC)c1 [E-pterostilbene] | found to induce an integration inhibition | no decrease | non significant increase | slight but reproducible decrease | No significant change | not active | more active on strand transfer reaction than | inhibitory efficiencies close to raltegravir | inhibited both activities | – | – | – | – | – | – | –
Oc1ccc(C(O)C2c3cc(O)cc(O)c3[C@H](c3ccc(O)cc3)[C@H]2c2cc(O)cc(O)c2)cc1 (some centres unmarked) [leachianol F] | – | – | – | – | – | also active against MOS1 activities | active on both reactions | inhibitory efficiencies close to raltegravir | inhibited both activities | showed an inhibitory effect | still active | over 50% | > 50% | 30 µM | potent topoisomerase II inhibitors | 30–60%

— paper PMC3842960, “Natural Stilbenoids Isolated from Grapevine Exhibiting Inhibitory Effects against HIV-1 Integrase and Eukaryote MOS1 Transposase In Vitro Activities” (PLoS ONE, 2013)
